Measured values from the kinase profiling compilation of Christmann-Franck et al. (2016).
Values joined by “and” are separate entries in the source; they are usually repeats but may differ in a detail not shown here. Equal entries are not always repeated.

Key:
DYRK3 (human) = DYRK3 (human) (UniProt O43781); assay: radiometric filter-binding kinase assay
MAP3K1 (human) = MAP3K1 (human) (UniProt Q13233); assay: radiometric filter-binding kinase assay
PDPK1 (human) = PDPK1 (human) (UniProt O15530); assay: radiometric filter-binding kinase assay; conditions: compound 1.0 µM
CSNK1G2 (human) = CSNK1G2 (human) (UniProt P78368); assay: radiometric filter-binding kinase assay
CSNK1G2 (human), sequence (P78368 whole entry, looked up): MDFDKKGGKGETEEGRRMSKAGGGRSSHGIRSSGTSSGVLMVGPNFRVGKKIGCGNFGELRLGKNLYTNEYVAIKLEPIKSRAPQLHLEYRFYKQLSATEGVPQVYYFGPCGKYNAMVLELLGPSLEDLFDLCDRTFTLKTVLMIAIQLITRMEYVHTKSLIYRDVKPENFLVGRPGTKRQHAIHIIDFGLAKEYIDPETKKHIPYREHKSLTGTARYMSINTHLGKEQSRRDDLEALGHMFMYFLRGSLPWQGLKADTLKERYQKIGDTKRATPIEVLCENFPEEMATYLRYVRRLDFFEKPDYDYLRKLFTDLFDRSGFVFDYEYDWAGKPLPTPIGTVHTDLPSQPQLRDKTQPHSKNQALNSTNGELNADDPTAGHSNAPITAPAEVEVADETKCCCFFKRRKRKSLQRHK

PKN2 (human) = PKN2 (human) (UniProt Q16513); assay: radiometric filter-binding kinase assay
PKN2 (human), sequence (Q16513 whole entry, looked up): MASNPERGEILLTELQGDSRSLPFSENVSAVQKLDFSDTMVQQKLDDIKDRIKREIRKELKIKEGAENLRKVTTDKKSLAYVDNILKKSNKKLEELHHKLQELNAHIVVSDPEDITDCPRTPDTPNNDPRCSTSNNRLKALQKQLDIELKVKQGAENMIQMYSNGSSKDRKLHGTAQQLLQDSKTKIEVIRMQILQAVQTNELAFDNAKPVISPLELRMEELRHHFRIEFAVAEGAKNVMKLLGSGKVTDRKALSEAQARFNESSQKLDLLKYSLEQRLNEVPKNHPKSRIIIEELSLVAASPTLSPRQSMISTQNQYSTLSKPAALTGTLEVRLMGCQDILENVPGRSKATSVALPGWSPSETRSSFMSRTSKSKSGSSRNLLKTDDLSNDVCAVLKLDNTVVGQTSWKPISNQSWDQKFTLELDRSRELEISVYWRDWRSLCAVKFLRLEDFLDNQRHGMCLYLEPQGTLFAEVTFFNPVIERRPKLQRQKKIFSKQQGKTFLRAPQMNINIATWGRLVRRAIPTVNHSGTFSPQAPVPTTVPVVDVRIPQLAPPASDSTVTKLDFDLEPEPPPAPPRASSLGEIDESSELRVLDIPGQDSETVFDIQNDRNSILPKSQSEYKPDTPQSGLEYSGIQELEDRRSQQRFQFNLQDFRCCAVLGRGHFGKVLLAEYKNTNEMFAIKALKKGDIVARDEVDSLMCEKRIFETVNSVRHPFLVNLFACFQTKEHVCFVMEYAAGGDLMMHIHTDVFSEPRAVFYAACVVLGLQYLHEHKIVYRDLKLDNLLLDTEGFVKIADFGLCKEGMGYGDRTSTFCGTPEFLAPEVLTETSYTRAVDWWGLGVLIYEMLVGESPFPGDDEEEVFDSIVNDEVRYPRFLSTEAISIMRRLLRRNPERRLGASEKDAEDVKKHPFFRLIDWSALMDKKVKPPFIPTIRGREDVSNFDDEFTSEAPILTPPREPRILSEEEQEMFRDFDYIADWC

PIM1 (human) = PIM1 (human) (UniProt P11309); assay: radiometric filter-binding kinase assay
PIM1 (human), sequence (P11309 whole entry, looked up): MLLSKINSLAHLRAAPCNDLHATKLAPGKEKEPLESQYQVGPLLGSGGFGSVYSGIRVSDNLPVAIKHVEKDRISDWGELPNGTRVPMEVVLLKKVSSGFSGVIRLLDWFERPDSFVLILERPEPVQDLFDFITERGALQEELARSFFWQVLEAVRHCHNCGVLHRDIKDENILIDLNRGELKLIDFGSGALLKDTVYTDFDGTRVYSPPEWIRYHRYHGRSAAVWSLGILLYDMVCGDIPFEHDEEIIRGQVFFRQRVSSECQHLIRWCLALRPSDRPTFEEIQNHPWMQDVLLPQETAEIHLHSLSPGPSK

EPHB3 (human) = EPHB3 (human) (UniProt P54753); assay: radiometric filter-binding kinase assay; conditions: compound 10.0 µM
AKT3 (human) = AKT3 (human) (UniProt Q9Y243); assay: KINOMEscan competition binding; conditions: compound 1.0 µM
CDK4 CCND1 (human) = CDK4 CCND1 (human) (UniProt P11802+P24385); assay: KINOMEscan competition binding; conditions: compound 1.0 µM
CSNK1D (human) = CSNK1D (human) (UniProt P48730); assay: KINOMEscan competition binding; conditions: compound 1.0 µM
STK4 (human) = STK4 (human) (UniProt Q13043); assay: KINOMEscan competition binding; conditions: compound 1.0 µM
STK32C (human) = STK32C (human) (UniProt Q86UX6); assay: KINOMEscan competition binding; conditions: compound 1.0 µM
MAP4K3 (human) = MAP4K3 (human) (UniProt Q8IVH8); assay: KINOMEscan competition binding; conditions: compound 1.0 µM
SRMS (human) = SRMS (human) (UniProt Q9H3Y6); assay: KINOMEscan competition binding; conditions: compound 1.0 µM
CLK1 (human) = CLK1 (human) (UniProt P49759); assay: KINOMEscan competition binding; conditions: compound 1.0 µM
PRKCE (human) = PRKCE (human) (UniProt Q02156); assay: KINOMEscan competition binding; conditions: compound 1.0 µM
PAK6 (human) = PAK6 (human) (UniProt Q9NQU5); assay: KINOMEscan competition binding; conditions: compound 1.0 µM
MAPK13 (human) = MAPK13 (human) (UniProt O15264); assay: KINOMEscan competition binding; conditions: compound 1.0 µM
FLT3 (human) = FLT3 (human) (UniProt P36888); assay: KINOMEscan competition binding; conditions: compound 1.0 µM
FLT3 (human), sequence (P36888 whole entry, looked up): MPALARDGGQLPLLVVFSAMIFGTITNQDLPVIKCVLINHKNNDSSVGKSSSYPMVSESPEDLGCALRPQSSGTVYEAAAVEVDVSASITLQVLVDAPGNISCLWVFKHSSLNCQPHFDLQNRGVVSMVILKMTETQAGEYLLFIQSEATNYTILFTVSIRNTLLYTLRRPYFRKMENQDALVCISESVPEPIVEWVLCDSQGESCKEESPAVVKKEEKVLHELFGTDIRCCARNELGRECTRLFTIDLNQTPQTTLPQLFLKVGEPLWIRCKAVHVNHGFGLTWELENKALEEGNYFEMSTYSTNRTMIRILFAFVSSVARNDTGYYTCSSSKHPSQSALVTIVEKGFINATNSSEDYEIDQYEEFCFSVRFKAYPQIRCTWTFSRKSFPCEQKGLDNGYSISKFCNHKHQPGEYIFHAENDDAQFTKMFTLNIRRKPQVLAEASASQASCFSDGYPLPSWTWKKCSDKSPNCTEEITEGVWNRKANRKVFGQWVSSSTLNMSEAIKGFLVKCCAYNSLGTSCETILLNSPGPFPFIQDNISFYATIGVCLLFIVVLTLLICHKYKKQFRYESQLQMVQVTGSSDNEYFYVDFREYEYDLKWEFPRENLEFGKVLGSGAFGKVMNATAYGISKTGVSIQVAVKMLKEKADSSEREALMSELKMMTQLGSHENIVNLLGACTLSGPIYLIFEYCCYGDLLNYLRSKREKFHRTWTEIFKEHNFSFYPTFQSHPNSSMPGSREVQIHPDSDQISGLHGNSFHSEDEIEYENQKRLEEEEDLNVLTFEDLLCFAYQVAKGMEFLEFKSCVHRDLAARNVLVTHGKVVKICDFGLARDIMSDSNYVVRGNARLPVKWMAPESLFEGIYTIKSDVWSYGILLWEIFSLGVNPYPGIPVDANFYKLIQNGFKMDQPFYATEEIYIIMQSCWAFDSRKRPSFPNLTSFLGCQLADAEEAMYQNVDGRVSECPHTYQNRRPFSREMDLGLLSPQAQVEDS

STK24 (human) = STK24 (human) (UniProt Q9Y6E0); assay: KINOMEscan competition binding; conditions: compound 1.0 µM
MAPK3 (human) = MAPK3 (human) (UniProt P27361); assay: KINOMEscan competition binding; conditions: compound 1.0 µM
MAP2K2 (human) = MAP2K2 (human) (UniProt P36507); assay: KINOMEscan competition binding; conditions: compound 1.0 µM
CDK7 (human) = CDK7 (human) (UniProt P50613); assay: KINOMEscan competition binding; conditions: compound 1.0 µM
SLK (human) = SLK (human) (UniProt Q9H2G2); assay: KINOMEscan competition binding; conditions: compound 1.0 µM
[1] = tested on: PIK3CA (human), P42336 [H1047Y]; assay: KINOMEscan competition binding; conditions: compound 1.0 µM
[2] = tested on: EGFR (human), P00533 [A750P; 747-749 del]; assay: KINOMEscan competition binding; conditions: compound 1.0 µM
STK38L (human) = STK38L (human) (UniProt Q9Y2H1); assay: KINOMEscan competition binding; conditions: compound 1.0 µM
[3] = tested on: RET (human), P07949 [V804L]; assay: KINOMEscan competition binding; conditions: compound 1.0 µM
TBK1 (human) = TBK1 (human) (UniProt Q9UHD2); assay: KINOMEscan competition binding; conditions: compound 1.0 µM
NLK (human) = NLK (human) (UniProt Q9UBE8); assay: KINOMEscan competition binding; conditions: compound 1.0 µM
STK38 (human) = STK38 (human) (UniProt Q15208); assay: KINOMEscan competition binding; conditions: compound 1.0 µM
ULK2 (human) = ULK2 (human) (UniProt Q8IYT8); assay: KINOMEscan competition binding; conditions: compound 1.0 µM
GSG2 (human) = GSG2 (human) (UniProt Q8TF76); assay: KINOMEscan competition binding; conditions: compound 1.0 µM
TNK1 (human) = TNK1 (human) (UniProt Q13470); assay: KINOMEscan competition binding; conditions: compound 1.0 µM
[4] = tested on: EGFR (human), P00533 [746-750 del]; assay: KINOMEscan competition binding; conditions: compound 1.0 µM
CAMK2A (human) = CAMK2A (human) (UniProt Q9UQM7); assay: KINOMEscan competition binding; conditions: compound 1.0 µM
TLK1 (human) = TLK1 (human) (UniProt Q9UKI8); assay: KINOMEscan competition binding; conditions: compound 1.0 µM
ACVRL1 (human) = ACVRL1 (human) (UniProt P37023); assay: KINOMEscan competition binding; conditions: compound 1.0 µM

DYRK3 (human), sequence (O43781 whole entry, looked up): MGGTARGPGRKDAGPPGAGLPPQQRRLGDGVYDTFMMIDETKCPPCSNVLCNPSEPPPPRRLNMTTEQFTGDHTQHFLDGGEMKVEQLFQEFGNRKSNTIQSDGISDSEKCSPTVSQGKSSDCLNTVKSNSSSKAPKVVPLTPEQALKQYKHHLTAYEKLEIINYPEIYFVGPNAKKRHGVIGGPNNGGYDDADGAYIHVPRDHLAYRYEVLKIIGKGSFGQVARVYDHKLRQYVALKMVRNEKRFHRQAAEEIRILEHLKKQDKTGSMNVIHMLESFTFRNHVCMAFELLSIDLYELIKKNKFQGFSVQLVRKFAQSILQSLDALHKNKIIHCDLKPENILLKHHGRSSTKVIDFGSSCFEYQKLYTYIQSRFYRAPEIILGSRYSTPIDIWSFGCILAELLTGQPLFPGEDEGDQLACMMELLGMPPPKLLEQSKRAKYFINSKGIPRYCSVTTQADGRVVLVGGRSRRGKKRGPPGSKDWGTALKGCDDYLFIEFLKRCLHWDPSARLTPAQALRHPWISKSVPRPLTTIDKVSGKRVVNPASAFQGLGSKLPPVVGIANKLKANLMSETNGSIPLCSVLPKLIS
MAP3K1 (human), sequence (Q13233 whole entry, looked up): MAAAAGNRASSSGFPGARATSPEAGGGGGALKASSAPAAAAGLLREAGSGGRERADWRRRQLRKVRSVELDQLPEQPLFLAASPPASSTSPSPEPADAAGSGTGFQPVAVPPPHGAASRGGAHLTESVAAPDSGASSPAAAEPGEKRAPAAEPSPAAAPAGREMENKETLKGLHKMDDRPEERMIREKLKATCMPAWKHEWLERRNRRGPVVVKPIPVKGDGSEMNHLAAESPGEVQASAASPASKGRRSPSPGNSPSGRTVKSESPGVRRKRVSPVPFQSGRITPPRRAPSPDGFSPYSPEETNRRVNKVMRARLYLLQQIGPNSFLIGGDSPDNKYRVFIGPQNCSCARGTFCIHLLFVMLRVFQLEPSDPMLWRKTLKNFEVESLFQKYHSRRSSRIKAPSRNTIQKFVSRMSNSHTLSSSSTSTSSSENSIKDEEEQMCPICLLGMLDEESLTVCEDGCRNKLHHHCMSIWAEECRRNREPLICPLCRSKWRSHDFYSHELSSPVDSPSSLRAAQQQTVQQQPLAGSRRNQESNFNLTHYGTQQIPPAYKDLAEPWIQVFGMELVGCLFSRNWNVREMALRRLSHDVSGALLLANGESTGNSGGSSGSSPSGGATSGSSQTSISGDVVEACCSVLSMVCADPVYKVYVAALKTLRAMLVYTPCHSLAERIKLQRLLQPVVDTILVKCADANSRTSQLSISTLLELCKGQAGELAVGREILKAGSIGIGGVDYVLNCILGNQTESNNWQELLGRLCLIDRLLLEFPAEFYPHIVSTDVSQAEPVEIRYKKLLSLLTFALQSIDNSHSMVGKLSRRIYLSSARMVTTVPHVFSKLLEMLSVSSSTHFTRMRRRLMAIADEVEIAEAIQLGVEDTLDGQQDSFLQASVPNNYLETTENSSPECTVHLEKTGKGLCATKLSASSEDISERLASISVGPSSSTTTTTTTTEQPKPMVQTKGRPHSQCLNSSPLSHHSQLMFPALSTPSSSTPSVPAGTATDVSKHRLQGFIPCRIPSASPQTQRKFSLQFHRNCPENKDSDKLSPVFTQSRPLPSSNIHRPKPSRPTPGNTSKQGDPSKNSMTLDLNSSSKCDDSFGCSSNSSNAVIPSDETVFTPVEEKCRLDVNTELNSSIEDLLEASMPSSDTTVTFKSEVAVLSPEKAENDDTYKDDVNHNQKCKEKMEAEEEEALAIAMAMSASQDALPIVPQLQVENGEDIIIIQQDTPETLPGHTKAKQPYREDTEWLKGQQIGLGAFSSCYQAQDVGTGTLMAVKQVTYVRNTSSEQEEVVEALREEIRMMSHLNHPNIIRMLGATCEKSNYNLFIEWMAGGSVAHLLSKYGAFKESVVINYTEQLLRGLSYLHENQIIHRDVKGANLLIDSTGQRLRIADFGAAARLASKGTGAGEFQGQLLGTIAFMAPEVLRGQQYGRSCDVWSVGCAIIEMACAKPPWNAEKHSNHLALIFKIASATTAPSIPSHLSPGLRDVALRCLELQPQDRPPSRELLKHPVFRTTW

Question: For CNc1nc(Nc2ccc(C(=O)N3CCOCC3)cc2OC)ncc1Cl, which residual activity (DYRK3 (human); compound 1.0 µM) is on record?
Answer: 84%

Question: And the residual activity (DYRK3 (human); compound 10.0 µM)?
Answer: 76%

Question: And the residual activity (MAP3K1 (human); compound 1.0 µM)?
Answer: 93%

Question: And the residual activity (MAP3K1 (human); compound 10.0 µM)?
Answer: 98%

Question: And the residual activity (PDPK1 (human))?
Answer: 102%

Question: And the residual activity (CSNK1G2 (human); compound 1.0 µM)?
Answer: 96%

Question: What about the residual activity (CSNK1G2 (human); compound 10.0 µM) of the same compound?
Answer: 93%

Question: What about the residual activity (PKN2 (human); compound 1.0 µM) of the same compound?
Answer: 102%

Question: What about the residual activity (PKN2 (human); compound 10.0 µM) of the same compound?
Answer: 92%

Question: What about the residual activity (PIM1 (human); compound 1.0 µM) of the same compound?
Answer: 96%

Question: What about the residual activity (PIM1 (human); compound 10.0 µM) of the same compound?
Answer: 99%

Question: And the residual activity (EPHB3 (human))?
Answer: 101%

Question: And the kinase still bound, per cent of control (AKT3 (human))?
Answer: 81%

Question: And the residual activity (CDK4 CCND1 (human))?
Answer: 100%

Question: What about the residual activity (CSNK1D (human)) of the same compound?
Answer: 100%

Question: And the kinase still bound, per cent of control (STK4 (human))?
Answer: 100%

Question: What about the kinase still bound, per cent of control (STK32C (human)) of the same compound?
Answer: 100%

Question: And the kinase still bound, per cent of control (MAP4K3 (human))?
Answer: 100%

Question: What about the kinase still bound, per cent of control (SRMS (human)) of the same compound?
Answer: 100%

Question: And the kinase still bound, per cent of control (CLK1 (human))?
Answer: 100%

Question: What about the kinase still bound, per cent of control (PRKCE (human)) of the same compound?
Answer: 86%

Question: And the kinase still bound, per cent of control (PAK6 (human))?
Answer: 100%

Question: What about the kinase still bound, per cent of control (MAPK13 (human)) of the same compound?
Answer: 94%

Question: What about the kinase still bound, per cent of control (FLT3 (human)) of the same compound?
Answer: 49% and 65%

Question: And the kinase still bound, per cent of control (STK24 (human))?
Answer: 79%

Question: What about the kinase still bound, per cent of control (MAPK3 (human)) of the same compound?
Answer: 100%

Question: What about the kinase still bound, per cent of control (MAP2K2 (human)) of the same compound?
Answer: 84%

Question: And the residual activity (CDK7 (human))?
Answer: 57%

Question: And the kinase still bound, per cent of control (SLK (human))?
Answer: 100%

Question: And the kinase still bound, per cent of control [1]?
Answer: 85%

Question: What about the kinase still bound, per cent of control [2] of the same compound?
Answer: 100%

Question: And the kinase still bound, per cent of control (STK38L (human))?
Answer: 86%

Question: What about the kinase still bound, per cent of control [3] of the same compound?
Answer: 99%

Question: And the kinase still bound, per cent of control (TBK1 (human))?
Answer: 100%

Question: And the kinase still bound, per cent of control (NLK (human))?
Answer: 100%

Question: What about the kinase still bound, per cent of control (STK38 (human)) of the same compound?
Answer: 100%

Question: And the kinase still bound, per cent of control (ULK2 (human))?
Answer: 85%

Question: And the kinase still bound, per cent of control (GSG2 (human))?
Answer: 74%

Question: And the kinase still bound, per cent of control (TNK1 (human))?
Answer: 66%

Question: And the kinase still bound, per cent of control [4]?
Answer: 88%

Question: What about the kinase still bound, per cent of control (CAMK2A (human)) of the same compound?
Answer: 76%

Question: What about the kinase still bound, per cent of control (TLK1 (human)) of the same compound?
Answer: 93%

Question: What about the kinase still bound, per cent of control (ACVRL1 (human)) of the same compound?
Answer: 100%
